Experiment: physchem
Type: physicochemical
Conditions: aqueous gamma-cyclodextrin 200 mg/ml
Procedure: This hydrogel can then be loaded with JM, which forms a host-guest complex with the yCD molecules Fig. 2 the amount of chlorine in various EPI crosslinked hydrogel samples was quantified. The EPI contains chlorine, but the final crosslinked hydrogel should not. Gels washed at 37°C in DI water were given either three 1-hour washes (short wash) or two 1-hour washes followed by an overnight wash with water or Ethanol. […] Fig. 3 the maximum solubility of Josamycin in aqueous solutions of various yCD concentrations was measured. Soluble JM was measured by HPLC. […] The amount of JM released was measured over time and expressed as a percent of the total JM initially loaded into the gel. Most of the JM was released within the first 96 hrs. […] On the left are molded and washed gels, which have been completely dried. On the right is a fully rehydrated gel which is almost completely transparent. […] The total drug loading was linearly related to the amount of josamycin in the loading solution.
The first formulation developed is a solution of yCD and JM. Solutions of JM and yCD can be made up to 18.9 mg/ml JM with 200 mg/ml yCD. These solutions are formed by simply mixing the JM and yCD in water or PBS until dissolved. This liquid formulation can then be sterilized via syringe filter before use. The solution is suitable for application to the eye as an eye drop or injection during or after surgery. […]

## CO[C@@H]1[C@@H](O[C@@H]2O[C@H](C)[C@@H](O[C@H]3C[C@@](C)(O)[C@@H](OC(=O)CC(C)C)[C@H](C)O3)[C@H](N(C)C)[C@H]2O)[C@@H](CC=O)C[C@@H](C)[C@@H](O)/C=C/C=C/C[C@@H](C)OC(=O)C[C@H]1OC(C)=O [JM, josamycin]
  solubility: ≤ 18.9 mg/mL

Reference: patent EP4356929A1, “ANTIFIBROTIC FORMULATION FOR OPHTHALMIC TREATMENT” (Universität Rostock, priority 2022, dated 2024)
